This is an account of results in patent publication US7285395B2, “Stearoyl-CoA desaturase 4 gene” (Wisconsin Alumni Research Foundation, priority 2004, dated 2007).

Common to all, as to assay type: in vivo, mouse
Holding throughout (conditions): heart, 129SV mice, chow diet containing 0.025% T0901317 fed for 2 days

Assay [1] deals with mSCD1. In words: quantitative RT-PCR of mSCD1 mRNA in hearts of mice fed test diets. The method, then: (§1) The mice were fed the following diets. A, a high carbohydrate fat-free diet (CHO-FF). B, high carbohydrate fat-free diet supplemented with fish oil (CHO-FO) that was fed for 4 days. C, chow diet supplemented with the LXRα agonist T0901317 (LXR) and fed for 2 days. Total RNA from hearts of mice from each group (n=4) was subjected to quantitative RT-PCR using specific primers as described in the example below. The fold change was calculated after correction for the levels of cyclophilin used as a standard. Each value represents the mean±S.E. (n=4). *, p<0.01; **, p<0.001 versus wild type (Student's t test).
(§2) Animals and Diets—Male C57BL6J and ob/ob mice were obtained from the Jackson Laboratory (Bar Harbor, Me.). 129S6/SvEv mice were purchased from Taconic (Germantown, N.Y.). […]
(§3) Cloning and Expression of the Mouse SCD4 cDNA—A BLAST search of the mouse genomic data base identified a gene with exon sequences highly homologous to the amino acid sequence of mouse SCD1, 2, and 3 (GenBank™ accession numbers AH—002082, M26270, and AF272037, respectively). Using the genomic sequence, a candidate open reading frame of the putative SCD4 was cloned by synthesizing a forward and a reverse primer. […]

Assay [2] relates to mSCD2. In words: quantitative RT-PCR of mSCD2 mRNA in hearts of mice fed test diets. The method, then: as §1, §2, §3
Assay [3] concerns mSCD4. In words: quantitative RT-PCR of mSCD4 mRNA in hearts of mice fed test diets. The procedure:
as §1, §2, §3

Each structure is given as a SMILES string.

Regarding `O=S(=O)(c1ccccc1)N(CC(F)(F)F)c1ccc(C(O)(C(F)(F)F)C(F)(F)F)cc1` [T0901317], in assay [1], the “induction of mouse SCD1 mRNA” value amounted to 18 fold. In addition, the “induction of mouse SCD2 mRNA” value in assay [2] was determined as 12 fold. In assay [3], the “induction of mouse SCD4 mRNA” value came out at 60 fold.
